Measured values as given in publication PMC1838524 (The Journal of biological chemistry, 2006).

Molecular target: T1, Vam7p PX domain (Saccharomyces cerevisiae, UniProt P32912)
T1 sequence (P32912 2-122): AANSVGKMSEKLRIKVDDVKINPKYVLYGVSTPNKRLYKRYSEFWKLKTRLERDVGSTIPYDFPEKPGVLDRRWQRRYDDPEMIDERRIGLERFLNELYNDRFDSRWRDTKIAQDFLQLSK
Experiment: 1H-15N HSQC NMR titration
Type: binding

`CCCCCC(=O)OC[C@H](COP(=O)(O)OC[C@H](N)C(=O)O)OC(=O)CCCCC` [C6-PtdSer, 1,2-dicaproyl-sn-glycero-3-[phospho-L-serine]] was tested, and the “1H-15N HSQC NMR titration (chemical shift perturbation)” value was “NMR titration of soluble dicaproyl (C6)-PtdSer into the PX domain”.
